In patent publication US10577373B2, “TYK2 inhibitors and uses thereof” (Nimbus Lakshmi, Inc., priority 2017, dated 2020):
Like-named read-outs stand apart in the source and are kept apart here.

Experiments:
[1] = system: IL-12 induced STAT4 phophorylation mediated by Tyk2/JAK2 (heterodimeric complex); assay: IL-12 Induced pSTAT4 in Human PBMC; format: cell-based; conditions: 1.7 ng/mL IL-12
Source text: The IL-12 Induced pSTAT4 assay evaluates the inhibition of IL-12 induced STAT4 phophorylation mediated by Tyk2/JAK2 (heterodimeric complex).

[2] = system: GM-CSF induced STAT5 phosphorylation mediated by the JAK2/JAK2 homdimeric complex; assay: GM-CSF Induced pSTAT5 in Human PBMC; conditions: GM-CSF 5 ng/mL for 20 minutes, pSTAT5
Source text: Human PBMC are isolated from buffy coat and are stored frozen for assays as needed.

[3] = Homo sapiens, PBMC, 20 min, read-out: PBMC_GMCSF_pSTAT5 IC50, human PBMC
[4] = read-out: PBMC_GMCSF_pSTAT5 IC50, human PBMC

| SMILES | IC50 [1] | IC50 [2, 3] | IC50 [2, 4] |
| --- | --- | --- | --- |
| CNc1cc(Nc2cccnc2OC)nc2c(C(=O)N[C@H]3CC[C@H]3O)cnn12 [I-429] | < 100 nM | > 50 µM |  |
| CNc1cc(Nc2cccc(N3CCCC3=O)n2)nc2c(C(=O)NC3CCC3)cnn12 [I-94] | < 100 nM | > 50 µM |  |
| CNc1cc(Nc2cccc(-c3cnn(C)c3)c2Cl)nc2c(C(N)=O)cnn12 [I-17] | < 100 nM | > 2.5 µM |  |
| CNc1cc(Nc2cccc3ocnc23)nc2c(C(=O)N[C@@H]3CC[C@H]3O)cnn12 (racemic) [I-756, 5-(benzo[d]oxazol-4-ylamino)-N-(2-hydroxycyclobutyl)-7-(methylamino) pyrazolo[1,5-a]pyrimidine-3-carboxamide] | 100 to 500 nM | > 50 µM |  |
| CNc1cc(Nc2cccn(C(C)C)c2=O)nc2c(C(=O)N[C@@H]3CC[C@H]3O)cnn12 [I-918] | < 100 nM | > 50 µM |  |
| CNc1cc(-c2cn(CCN3CCCCC3)c3ncccc23)nc2c(C(=O)N[C@@H]3CC[C@H]3O)cnn12 [I-837] | < 100 nM | > 12.5 µM |  |
| CNc1cc(Nc2cccn(C[C@@H]3CCCCO3)c2=O)nc2c(C(=O)NC3CC3)cnn12 [I-413] | < 100 nM | > 50 µM |  |
| CNc1cc(Nc2cccn(-c3ccccn3)c2=O)nc2c(C(=O)N[C@H]3C[C@H]3F)cnn12 [I-681] | < 100 nM | > 12.5 µM |  |
| CNc1cc(-c2cn(C(C)C)c3ncccc23)nc2c(C(=O)N[C@H]3CC[C@H]3O)cnn12 [I-637] | < 100 nM | > 12.5 µM |  |
| CNc1cc(Nc2cc(Cl)cn([C@@H]3CCCOC3)c2=O)nc2c(C(=O)N[C@@H]3C[C@@H]3F)cnn12 [I-773] | < 100 nM | > 12.5 µM |  |
| CNc1cc(Nc2cccnc2OC)nc2c(C(=O)N[C@H]3C[C@H]3F)cnn12 [I-110] | < 100 nM | > 50 µM |  |
| CNc1cc(Nc2cc(F)cnc2OC2CC2)nc2c(C(=O)N[C@H]3C[C@H]3F)cnn12 [I-275] | < 100 nM | > 50 µM |  |
| CNc1cc(Nc2cccn([C@H]3CC[C@H](OC)CC3)c2=O)nc2c(C(=O)NCC(C)(C)CO)cnn12 [I-544] | < 100 nM | > 2.5 µM |  |
| CNc1cc(Nc2cccc(N3CCOC3=O)n2)nc2c(C(=O)NC3CCC3)cnn12 [I-105] | < 100 nM | > 12.5 µM |  |
| CNc1cc(Nc2cccn(-c3cnc(C(=O)N(C)C)cn3)c2=O)nc2c(C(=O)N[C@H]3C[C@H]3F)cnn12 [I-126] | < 100 nM | > 50 µM |  |
| CNc1cc(-c2cn(C(C)C)c3ncccc23)nc2c(C(=O)NC3CC3)cnn12 [I-223] | < 100 nM | > 12.5 µM |  |
| CNc1cc(Nc2cccn(CCOC)c2=O)nc2c(C(=O)NC3CCC3)cnn12 [I-269] | < 100 nM | > 50 µM |  |
| CNc1cc(Nc2cccn(-c3cc(C)on3)c2=O)nc2c(C(=O)N[C@H]3C[C@H]3F)cnn12 [I-161] | < 100 nM | > 12.5 µM |  |
| CNc1cc(Nc2cccnc2OC)nc2c(C(=O)NC[C@H](C)CO)cnn12 [I-483] | < 100 nM | > 50 µM |  |

| SMILES | IC50 [1] | IC50 [2, 3] | IC50 [2, 4] |
| --- | --- | --- | --- |
| CNc1cc(Nc2cccnc2OC2CC2)nc2c(C(=O)N[C@H]3C[C@H]3F)cnn12 [I-217] | < 100 nM | > 50 µM |  |
| CNc1cc(Nc2cc(F)cc(F)c2F)nc2c(C(=O)NC3CC3)cnn12 [I-5] | < 100 nM | > 50 µM |  |
| CNc1cc(Nc2cccnc2OC2CC2)nc2c(C(=O)NC3CCC3)cnn12 [I-216] | < 100 nM | > 12.5 µM |  |
| CNc1cc(Nc2cccnc2OC)nc2c(C(=O)N[C@H]3CC[C@@H]3O)cnn12 [I-395] | < 100 nM |  | > 12.5 µM |
| CNc1cc(-c2cn(CCN3CCOCC3)c3ncccc23)nc2c(C(=O)N[C@H]3CC[C@@H]3OC)cnn12 [I-886] | < 100 nM | > 0.3 µM |  |
| CCn1cc(Cl)cc(Nc2cc(NC)n3ncc(C(=O)NC4CC4)c3n2)c1=O [I-133, 5-((5-chloro-1-ethyl-2-oxo-1,2-dihydropyridin-3-yl)amino)-N-cyclopropyl-7-(methylamino)pyrazolo[1,5-a]pyrimidine-3-carboxamide] | < 100 nM | > 12.5 µM |  |
| CNc1cc(Nc2cccn(C3CCCCC3)c2=O)nc2c(C(=O)N[C@@H]3CC[C@H]3O)cnn12 [I-1002] | < 100 nM |  | > 50 µM |
| CNc1cc(Nc2cc(C)cn(-c3cnn(C)c3)c2=O)nc2c(C(=O)NC3CCC3)cnn12 [I-234] | < 100 nM | > 2.5 µM |  |
| CNc1cc(Nc2cc(Cl)cn(-c3cnn(C)c3)c2=O)nc2c(C(=O)N[C@H]3C[C@H]3F)cnn12 [I-312] | < 100 nM | > 12.5 µM |  |
| CNc1cc(Nc2cc(Cl)cn(-c3cnc(C(=O)N(C)C)cn3)c2=O)nc2c(C(=O)NC3CC3)cnn12 [I-318] | < 100 nM | > 2.5 µM |  |
| CNc1cc(Nc2cccn(-c3cc(C)n(C)n3)c2=O)nc2c(C(=O)NC3CC3)cnn12 [I-138] | < 100 nM | > 50 µM |  |
| [2H]C([2H])([2H])Oc1ncccc1Nc1cc(NC)n2ncc(C(=O)N[C@H]3C[C@H]3F)c2n1 [I-177] | < 100 nM | > 12.5 µM |  |
| CNc1cc(Nc2cccnc2OC2CC2)nc2c(C(=O)N[C@H]3CC[C@@H]3O)cnn12 [I-397] | < 100 nM | > 50 µM |  |
| CNc1cc(Nc2cccn([C@H]3CC[C@@H]3O)c2=O)nc2c(C(=O)N[C@@H]3C[C@@H]3F)cnn12 [I-916] | < 100 nM | > 50 µM |  |
| CNc1cc(Nc2cc(Cl)cn(-c3cc(C)n(C)n3)c2=O)nc2c(C(=O)N[C@H]3C[C@H]3F)cnn12 [I-315] | < 100 nM | > 12.5 µM |  |
| CNc1cc(Nc2cccn([C@@H]3CCC[C@H](OC)C3)c2=O)nc2c(C(=O)N[C@@H]3CC[C@H]3OC)cnn12 [I-995] | < 100 nM | > 50 µM |  |
| CNc1cc(Nc2cccn(-c3ccc(F)cn3)c2=O)nc2c(C(=O)N[C@H]3C[C@H]3F)cnn12 [I-115] | < 100 nM | > 12.5 µM |  |
| [2H]C([2H])([2H])Oc1ncccc1Nc1cc(NC)n2ncc(C(=O)N[C@H]3CC[C@H](O)C3)c2n1 [I-500] | < 100 nM | > 50 µM |  |
| CNc1cc(Nc2cccn(C3CCCCC3)c2=O)nc2c(C(=O)N[C@@H]3CC[C@@H]3O)cnn12 [I-1000] | < 100 nM | > 50 µM |  |

| SMILES | IC50 [1] | IC50 [2, 3] | IC50 [2, 4] |
| --- | --- | --- | --- |
| CNc1cc(Nc2cccnc2OC(F)F)nc2c(C(=O)NC3CC3)cnn12 [I-154] | < 100 nM | > 12.5 µM |  |
| CNc1cc(Nc2cccn(-c3nc(C)c(C)s3)c2=O)nc2c(C(=O)N[C@H]3C[C@H]3F)cnn12 [I-292] | < 100 nM | > 2.5 µM |  |
| CNc1cc(Nc2cccn(-c3cccc(C)n3)c2=O)nc2c(C(=O)N[C@H]3C[C@H]3F)cnn12 [I-131] | < 100 nM | > 12.5 µM |  |
| CNc1cc(Nc2cccn(-c3ccc(OC)cn3)c2=O)nc2c(C(=O)NC3CCC3)cnn12 [I-266] | < 100 nM | > 12.5 µM |  |
| CNc1cc(Nc2cccc3ocnc23)nc2c(C(=O)N[C@H]3COC[C@H]3O)cnn12 [I-834] | 100 to 500 nM | > 50 µM |  |
| CNC(=O)c1occc1Nc1cc(NC)n2ncc(C(=O)NC3CC3)c2n1 [I-887] | < 100 nM | > 50 µM |  |
| CNc1cc(Nc2cc(Cl)cn(-c3cnc(C(=O)N(C)C)cn3)c2=O)nc2c(C(=O)N[C@H]3C[C@H]3F)cnn12 [I-319] | < 100 nM | > 2.5 µM |  |
| CNc1cc(Nc2cc(Cl)cn(-c3cnn(C)c3)c2=O)nc2c(C(=O)NC3CC3)cnn12 [I-311] | < 100 nM | > 12.5 µM |  |
| CNc1cc(Nc2cccn([C@H]3CC[C@](C)(OC)CC3)c2=O)nc2c(C(=O)N[C@@H]3CC[C@@H]3O)cnn12 [I-670, N-(2-hydroxycyclobutyl)-5-((1-((1R,4S)-4-methoxy-4-methylcyclohexyl)-2-oxo-1,2-dihydropyridin-3-yl)amino)-7-(methylamino)pyrazolo[1,5-a]pyrimidine-3-carboxamide] | < 100 nM |  | > 50 µM |
| CNc1cc(Nc2cccn(-c3ncc(C)s3)c2=O)nc2c(C(=O)N[C@H]3C[C@H]3F)cnn12 [I-262] | < 100 nM | > 2.5 µM |  |
| CNc1cc(-c2cn(C(C)C)c3ncccc23)nc2c(C(=O)N[C@@H]3C[C@@H]3F)cnn12 (stereo in doubt) [I-225, N-((1R,2S)-2-fluorocyclopropyl)-5-(1-isopropyl-1H-pyrrolo[2,3-b]pyridin-3-yl)-7-(methylamino)pyrazolo[1,5-a]pyrimidine-3-carboxamide] | < 100 nM | > 50 µM |  |
| CNc1cc(Nc2cccn(-c3ccc(C4CC4)nn3)c2=O)nc2c(C(=O)N[C@H]3C[C@H]3F)cnn12 [I-165] | < 100 nM | > 2.5 µM |  |
| [2H]C([2H])([2H])Oc1ncccc1Nc1cc(NC)n2ncc(C(=O)N[C@H]3C[C@H](O)C3)c2n1 [I-321, N-((1r,3r)-3-hydroxycyclobutyl)-5-((2-(methoxy-d3)pyridin-3-yl)amino)-7-(methylamino)pyrazolo[1,5-a]pyrimidine-3-carboxamide] | < 100 nM | > 2.5 µM |  |
| CNc1cc(Nc2cccnc2OC(C)C)nc2c(C(N)=O)cnn12 [I-72] | 100 to 500 nM | > 12.5 µM |  |
| CNc1cc(Nc2cccn([C@@H]3CCC[C@H](OC)C3)c2=O)nc2c(C(=O)NC3CC3)cnn12 [I-621] | < 100 nM | > 50 µM |  |
| CNc1cc(Nc2cc(Cl)cn(-c3ccn(C)n3)c2=O)nc2c(C(=O)N[C@H]3C[C@H]3F)cnn12 [I-309] | < 100 nM | > 12.5 µM |  |
| CNc1cc(Nc2cccn([C@@H]3CCN(CCF)C3)c2=O)nc2c(C(=O)N[C@@H]3CC[C@H]3OC)cnn12 [I-1333] | < 100 nM |  |  |
| CNc1cc(Nc2cccn([C@H]3CCCC[C@H]3OC)c2=O)nc2c(C(=O)N[C@H]3CC[C@@H]3OC)cnn12 [I-1377] | < 100 nM |  |  |
| CNc1cc(-c2cn(CCCO)c3ncccc23)nc2c(C(=O)N[C@@H]3CC[C@H]3OC)cnn12 [I-1299] | < 100 nM |  |  |
